Target: Xanthine dehydrogenase/oxidase (Bos taurus, UniProt P80457)
Test: Inhibition of cow milk xanthine oxidase at 50 ug/mL
Settings: cattle

Xanthine dehydrogenase/oxidase, sequence (P80457 whole entry): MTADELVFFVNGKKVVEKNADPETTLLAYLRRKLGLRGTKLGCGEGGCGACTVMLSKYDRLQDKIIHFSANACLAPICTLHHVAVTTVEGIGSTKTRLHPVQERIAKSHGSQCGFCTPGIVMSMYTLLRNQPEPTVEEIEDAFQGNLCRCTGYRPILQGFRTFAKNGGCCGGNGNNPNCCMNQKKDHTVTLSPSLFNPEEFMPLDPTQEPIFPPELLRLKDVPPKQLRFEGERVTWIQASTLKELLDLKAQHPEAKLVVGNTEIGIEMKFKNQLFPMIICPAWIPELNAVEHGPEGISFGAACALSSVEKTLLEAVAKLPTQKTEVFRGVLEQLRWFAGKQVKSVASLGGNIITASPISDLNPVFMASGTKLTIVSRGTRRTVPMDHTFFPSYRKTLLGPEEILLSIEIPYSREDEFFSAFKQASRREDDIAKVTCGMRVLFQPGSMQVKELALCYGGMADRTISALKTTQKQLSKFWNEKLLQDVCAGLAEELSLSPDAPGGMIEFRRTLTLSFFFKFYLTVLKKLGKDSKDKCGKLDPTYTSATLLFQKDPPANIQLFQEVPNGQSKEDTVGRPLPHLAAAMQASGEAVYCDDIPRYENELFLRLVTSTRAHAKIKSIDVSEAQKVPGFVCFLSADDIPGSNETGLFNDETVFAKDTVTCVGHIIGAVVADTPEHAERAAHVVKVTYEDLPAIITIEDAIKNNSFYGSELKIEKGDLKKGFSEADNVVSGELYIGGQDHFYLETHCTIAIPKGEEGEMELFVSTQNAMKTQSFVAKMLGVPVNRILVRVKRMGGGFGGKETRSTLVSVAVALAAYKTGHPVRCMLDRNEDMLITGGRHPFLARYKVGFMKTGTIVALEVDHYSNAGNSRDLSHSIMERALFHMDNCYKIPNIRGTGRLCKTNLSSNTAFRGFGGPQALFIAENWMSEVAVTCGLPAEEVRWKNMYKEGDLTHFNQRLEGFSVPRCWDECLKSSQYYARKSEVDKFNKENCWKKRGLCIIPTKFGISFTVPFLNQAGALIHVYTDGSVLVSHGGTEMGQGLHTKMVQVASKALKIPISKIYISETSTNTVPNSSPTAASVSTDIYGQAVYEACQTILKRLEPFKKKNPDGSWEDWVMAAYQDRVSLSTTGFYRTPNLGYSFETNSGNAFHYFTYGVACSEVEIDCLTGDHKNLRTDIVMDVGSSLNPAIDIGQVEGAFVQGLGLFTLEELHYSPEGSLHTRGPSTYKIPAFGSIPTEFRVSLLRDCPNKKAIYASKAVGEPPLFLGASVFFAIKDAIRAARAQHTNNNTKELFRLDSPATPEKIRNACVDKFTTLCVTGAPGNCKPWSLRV

| Compound | inhibition at 50 µg/mL [%] |
| --- | --- |
| COc1ccc(-c2cc(=O)c3c(O)cc(O[C@@H]4O[C@H](CO)[C@@H](O)[C@H](O)[C@H]4O)cc3o2)cc1O | 28.9 |
| O=C1C[C@@H](c2ccc(O)cc2)Oc2cc(O[C@@H]3O[C@H](CO)[C@@H](O)[C@H](O)[C@H]3O)cc(O)c21 [PRUNIN] | 4.2 |
| COc1c(O)cc2occ(-c3ccc(O)cc3)c(=O)c2c1O [TECTORIGENIN] | 0 |
| O=C(O)[C@H]1O[C@@H](Oc2cc3oc(-c4ccc(O)cc4)cc(=O)c3c(O)c2O)[C@H](O)[C@@H](O)[C@@H]1O [SCUTELLARIN] | 16.6 |
| O=c1c(O)c(-c2ccc(O)c(O)c2)oc2cc(O[C@@H]3O[C@H](CO)[C@@H](O)[C@H](O)[C@H]3O)cc(O)c12 [QUERCIMERITRIN] | 0 |
| COc1ccc(-c2cc(=O)c3c(O)c(OC)c(O[C@@H]4O[C@H](CO[C@@H]5O[C@@H](C)[C@H](O)[C@@H](O)[C@H]5O)[C@@H](O)[C@H](O)[C@H]4O)cc3o2)cc1 [PECTOLINARIN] | 11.5 |
| CC(=O)Oc1cc(OC(C)=O)c2c(=O)c(OC(C)=O)c(-c3cc(OC(C)=O)c(OC(C)=O)c(OC(C)=O)c3)oc2c1 | 13.6 |
| O=c1c(O[C@@H]2O[C@@H](CO)[C@H](O)[C@H]2O)c(-c2ccc(O)c(O)c2)oc2cc(O)cc(O)c12 [AVICULARIN] | 30.8 |
| COc1cc(-c2cc(=O)c3c(O)cc(O[C@H]4O[C@@H](C(=O)O)[C@H](O)[C@@H](O)[C@@H]4O)cc3o2)ccc1O | 0.3 |
| COc1ccc(-c2cc(=O)c3c(O)cc(O[C@@H]4O[C@H](CO[C@@H]5O[C@@H](C)[C@H](O)[C@@H](O)[C@H]5O)[C@@H](O)[C@H](O)[C@H]4O)cc3o2)cc1 [ACACIIN] | 15.1 |
| COc1cc2oc(-c3ccc(O)cc3)c(O)c(=O)c2c(O)c1[C@@H]1O[C@H](CO)[C@@H](O)[C@H](O)[C@H]1O [KEYAKININ] | 0 |
| CC(=O)Oc1ccc(-c2cc(=O)c3c(OC(C)=O)c(OC(C)=O)c(OC(C)=O)cc3o2)cc1 | 0 |
| O=c1cc(-c2ccc(O)cc2)oc2c([C@@H]3O[C@H](CO)[C@@H](O)[C@H](O)[C@H]3O)c(O)cc(O)c12 [VITEXIN] | 0 |
| COc1cc(O)c2c(c1)O[C@H](c1ccc(O)cc1)CC2=O [SAKURANETIN] | 0 |
| O=c1c(O[C@@H]2O[C@@H](CO)[C@H](O)[C@H]2O)c(-c2ccc(O)cc2)oc2cc(O)cc(O)c12 [JUGLANIN] | 0 |
| COc1ccc(-c2cc(=O)c3c(O)c([C@@H]4O[C@H](CO)[C@@H](O)[C@H](O)[C@H]4O)c(OC)cc3o2)cc1 [EMBIGENIN] | 33.5 |
| COc1cc2oc(-c3ccc(O[C@@H]4O[C@H](CO)[C@@H](O)[C@H](O)[C@H]4O)cc3)cc(=O)c2c(O)c1OC [CIRSIMARIN] | 12.2 |
| O=c1c(O[C@@H]2O[C@H](CO)[C@H](O)[C@H](O)[C@H]2O)c(-c2ccc(O)c(O)c2)oc2cc(O)cc(O)c12 [HYPEROSIDE] | 43 |
| CC(=O)Oc1cc(OC(C)=O)c2c(=O)c(OC(C)=O)c(-c3ccc(OC(C)=O)c(OC(C)=O)c3)oc2c1 | 0 |
| COc1cc2oc(-c3ccc(O)cc3)cc(=O)c2c(O)c1[C@@H]1O[C@H](CO)[C@@H](O)[C@H](O)[C@H]1O [SWERTISIN] | 24.9 |
| COc1cc(-c2oc3cc(O)cc(O)c3c(=O)c2O)ccc1O [ISORHAMNETIN] | 49 |
| COc1c(-c2ccc(O)c(O)c2)oc2cc(O[C@@H]3O[C@H](CO)[C@@H](O)[C@H](O)[C@H]3O)cc(O)c2c1=O [TRANSILIN] | 39.5 |
| COc1cc(-c2cc(=O)c3c(O)c(OC)c(OC)cc3o2)ccc1O [CIRSILENEOL] | 1 |

| Compound | inhibition at 50 µg/mL [%] |
| --- | --- |
| O=c1c(O[C@@H]2O[C@H](CO)[C@H](O)[C@H](O)[C@H]2O)c(-c2ccc(O)cc2)oc2cc(O)cc(O)c12 [TRIFOLIN] | 16.1 |
| O=C1C[C@@H](c2ccc(O)c(O)c2)Oc2cc(O)cc(O)c21 [ERIODICTYOL] | 47.8 |
| COc1cc(-c2cc(=O)c3c(O)cc(O)cc3o2)ccc1O [CHRYSOERIOL] | 61.5 |
| COc1ccc([C@@H]2CC(=O)c3c(O)cc(O[C@@H]4O[C@H](CO)[C@@H](O)[C@H](O)[C@H]4O[C@@H]4O[C@@H](C)[C@H](O)[C@@H](O)[C@H]4O)cc3O2)cc1 [PONCIRIN] | 0 |
| O=c1c(-c2ccc(O[C@@H]3O[C@H](CO)[C@@H](O)[C@H](O)[C@H]3O)cc2)coc2cc(O)cc(O)c12 [SOPHORICOSIDE] | 15.3 |
| CC(C)=CCc1c(O[C@@H]2O[C@H](CO)[C@@H](O)[C@H](O)[C@H]2O)cc(O)c2c1O[C@H](c1ccc(O)cc1)[C@@H](O)C2=O [PHELLAMURIN] | 0 |
| COc1ccc(-c2cc(=O)c3c(O)cc(O[C@@H]4O[C@H](CO[C@@H]5OC[C@@H](O)[C@@H](O)[C@@H]5O)[C@@H](O)[C@H](O)[C@H]4O)cc3o2)cc1O | 30.5 |
| COc1ccc(-c2coc3cc(O)c(OC)c(O)c3c2=O)cc1O [IRISTECTORIGENIN A] | 0 |
| COc1cc2oc(-c3ccccc3)cc(=O)c2c(OC)c1OC [BAICALEIN TRIMETHYL ETHER] | 22 |
| COc1cc(-c2coc3cc(O[C@@H]4O[C@H](CO)[C@@H](O)[C@H](O)[C@H]4O)c(OC)c(O)c3c2=O)cc(O)c1OC [IRIDIN] | 0 |
| COc1ccc(-c2coc3cc(O)ccc3c2=O)cc1 [FORMONONETIN] | 17.6 |
| O=c1cc(-c2ccc(O)c(O)c2)oc2c([C@@H]3O[C@H](CO)[C@@H](O)[C@H](O)[C@H]3O)c(O)cc(O)c12 [ORIENTIN] | 15.3 |
| COc1cc(-c2coc3cc(O)c(OC)c(O)c3c2=O)cc(O)c1OC [IRIGENIN] | 0 |
| O=c1cc(-c2ccc(O)c(O)c2)oc2cc(O)c([C@@H]3O[C@H](CO)[C@@H](O)[C@H](O)[C@H]3O)c(O)c12 [ISOORIENTIN] | 25.2 |
| COc1ccc(-c2cc(=O)c3c(O)c(OC)c(O)cc3o2)cc1 [PECTOLINARIGENIN] | 32.1 |
| C[C@@H]1O[C@@H](O[C@H]2[C@H](Oc3cc(O)c4c(=O)cc(-c5ccc(O)cc5)oc4c3)O[C@H](CO)[C@@H](O)[C@@H]2O)[C@H](O)[C@H](O)[C@H]1O [RHOIFOLIN] | 12.9 |
| O=c1c(-c2ccc(O)cc2)coc2cc(O[C@@H]3O[C@H](CO)[C@@H](O)[C@H](O)[C@H]3O)ccc12 [DAIDZIN] | 0 |
| COc1cc2oc(-c3ccc(O)cc3)cc(=O)c2c(O)c1OC [CIRSIMARITIN] | 0 |
| O=C(O)[C@H]1O[C@@H](Oc2c(-c3ccc(O)c(O)c3)oc3cc(O)cc(O)c3c2=O)[C@H](O)[C@@H](O)[C@@H]1O [QUERCETIN GLUCURONIDE] | 36.5 |
| O=c1cc(-c2ccccc2)oc2ccccc12 [FLAVONE] | 15.4 |
| O=c1c(-c2ccc(O)cc2)coc2cc(O)cc(O)c12 [GENISTEIN] | 0 |
| COc1ccc(-c2cc(=O)c3c(O)c([C@H]4O[C@H](CO)[C@@H](O)[C@H](O)[C@H]4O[C@H]4O[C@H](C)[C@@H](O)[C@H](O)[C@@H]4O)c(OC)cc3o2)cc1 [EMBININ] | 22.8 |
| O=c1c(-c2ccc(O)cc2)coc2cc(O[C@@H]3O[C@H](CO)[C@@H](O)[C@H](O)[C@H]3O)cc(O)c12 [GENISTIN] | 0.8 |
